In the kinase profiling compilation of Christmann-Franck et al. (2016):

Tests used:
Experiment in all cases: KINOMEscan competition binding
Conditions in all cases: compound 10.0 µM
[1] = tested on: ABL1 (human), P00519 [E255K]
[2] = tested on: ABL1 (human), P00519 [M351T]
[3] = tested on: ABL1 (human), P00519 [Y253F]
CDK15 (human) = CDK15 (human) (UniProt Q96Q40)
CSK (human) = CSK (human) (UniProt P41240)
CaMK1 (human) = CaMK1 (human) (UniProt Q14012)
[4] = tested on: EGFR (human), P00533 [746-750 del]
[5] = tested on: EGFR (human), P00533 [G719S]
EPHB2 (human) = EPHB2 (human) (UniProt P29323)
FES (human) = FES (human) (UniProt P07332)
Sequence of FES (human) (P07332 whole entry, looked up): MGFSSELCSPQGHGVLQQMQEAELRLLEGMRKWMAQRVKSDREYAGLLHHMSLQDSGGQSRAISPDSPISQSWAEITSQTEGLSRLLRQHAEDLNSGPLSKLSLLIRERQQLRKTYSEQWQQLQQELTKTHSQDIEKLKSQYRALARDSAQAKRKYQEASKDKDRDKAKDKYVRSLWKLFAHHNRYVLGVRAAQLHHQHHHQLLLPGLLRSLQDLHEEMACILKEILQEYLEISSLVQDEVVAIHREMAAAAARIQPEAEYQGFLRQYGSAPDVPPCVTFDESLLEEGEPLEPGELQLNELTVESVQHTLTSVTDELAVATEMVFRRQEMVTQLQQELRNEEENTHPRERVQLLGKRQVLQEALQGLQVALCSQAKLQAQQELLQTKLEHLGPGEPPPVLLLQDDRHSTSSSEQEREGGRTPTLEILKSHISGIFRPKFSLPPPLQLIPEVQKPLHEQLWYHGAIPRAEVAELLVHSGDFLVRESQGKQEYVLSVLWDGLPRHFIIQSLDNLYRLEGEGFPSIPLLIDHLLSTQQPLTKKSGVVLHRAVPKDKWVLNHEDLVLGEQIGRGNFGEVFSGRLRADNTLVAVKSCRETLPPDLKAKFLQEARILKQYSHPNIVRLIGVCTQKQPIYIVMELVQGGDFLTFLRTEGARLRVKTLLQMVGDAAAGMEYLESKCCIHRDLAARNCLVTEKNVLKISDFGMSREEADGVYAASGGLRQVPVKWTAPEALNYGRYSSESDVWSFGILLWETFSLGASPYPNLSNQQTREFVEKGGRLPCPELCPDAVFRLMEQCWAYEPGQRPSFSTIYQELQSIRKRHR

FGFR4 (human) = FGFR4 (human) (UniProt P22455)
FLT3 (human) = FLT3 (human) (UniProt P36888)
[6] = tested on: FLT3 (human), P36888 [D835H]
[7] = tested on: FLT3 (human), P36888 [D835Y]
[8] = tested on: FLT3 (human), P36888 [K663Q]
HIPK1 (human) = HIPK1 (human) (UniProt Q86Z02)
[9] = tested on: KIT (human), P10721 [V559D]
Sequence of KIT (human), P10721 [V559D] (P10721 whole entry V559D, looked up): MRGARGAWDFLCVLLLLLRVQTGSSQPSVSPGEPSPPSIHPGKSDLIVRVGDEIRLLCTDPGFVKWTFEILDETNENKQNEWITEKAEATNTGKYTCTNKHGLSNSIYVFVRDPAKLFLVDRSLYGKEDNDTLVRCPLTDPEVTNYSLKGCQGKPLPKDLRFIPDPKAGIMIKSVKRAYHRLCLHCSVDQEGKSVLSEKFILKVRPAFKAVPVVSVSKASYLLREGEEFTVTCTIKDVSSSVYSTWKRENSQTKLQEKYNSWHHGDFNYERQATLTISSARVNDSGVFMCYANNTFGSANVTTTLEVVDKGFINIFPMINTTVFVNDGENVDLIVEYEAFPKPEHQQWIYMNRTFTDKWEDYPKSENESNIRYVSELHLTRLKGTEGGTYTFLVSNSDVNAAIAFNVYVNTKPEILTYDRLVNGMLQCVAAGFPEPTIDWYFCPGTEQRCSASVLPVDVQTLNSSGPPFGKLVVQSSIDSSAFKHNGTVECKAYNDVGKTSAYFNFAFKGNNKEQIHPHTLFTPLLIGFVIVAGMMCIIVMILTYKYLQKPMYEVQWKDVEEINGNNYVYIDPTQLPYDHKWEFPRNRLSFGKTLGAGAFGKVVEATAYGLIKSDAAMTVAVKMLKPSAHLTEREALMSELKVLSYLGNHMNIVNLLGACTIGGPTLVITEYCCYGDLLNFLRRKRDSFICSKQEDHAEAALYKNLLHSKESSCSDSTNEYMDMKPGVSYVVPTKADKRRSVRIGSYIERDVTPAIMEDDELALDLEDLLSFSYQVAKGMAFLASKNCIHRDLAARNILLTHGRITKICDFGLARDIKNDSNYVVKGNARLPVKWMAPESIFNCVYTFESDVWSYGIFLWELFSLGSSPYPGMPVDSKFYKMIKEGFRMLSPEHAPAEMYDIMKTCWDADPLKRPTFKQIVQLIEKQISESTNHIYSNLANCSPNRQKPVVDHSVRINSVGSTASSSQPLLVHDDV

LATS2 (human) = LATS2 (human) (UniProt Q9NRM7)
MAP4K3 (human) = MAP4K3 (human) (UniProt Q8IVH8)
MAPK14 (human) = MAPK14 (human) (UniProt Q16539)
Sequence of MAPK14 (human) (Q16539 whole entry, looked up): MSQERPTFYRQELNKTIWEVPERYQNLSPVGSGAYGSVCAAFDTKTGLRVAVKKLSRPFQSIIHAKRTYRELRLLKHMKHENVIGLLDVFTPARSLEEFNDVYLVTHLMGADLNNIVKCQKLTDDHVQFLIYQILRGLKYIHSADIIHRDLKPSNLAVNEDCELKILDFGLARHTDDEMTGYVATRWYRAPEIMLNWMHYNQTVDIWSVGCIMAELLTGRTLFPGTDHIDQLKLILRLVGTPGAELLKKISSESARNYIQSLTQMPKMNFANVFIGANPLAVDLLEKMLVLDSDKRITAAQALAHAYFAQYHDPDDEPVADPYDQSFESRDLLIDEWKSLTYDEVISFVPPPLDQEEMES

MKNK2 (human) = MKNK2 (human) (UniProt Q9HBH9)
MYLK2 (human) = MYLK2 (human) (UniProt Q9H1R3)
Sequence of MYLK2 (human) (Q9H1R3 whole entry, looked up): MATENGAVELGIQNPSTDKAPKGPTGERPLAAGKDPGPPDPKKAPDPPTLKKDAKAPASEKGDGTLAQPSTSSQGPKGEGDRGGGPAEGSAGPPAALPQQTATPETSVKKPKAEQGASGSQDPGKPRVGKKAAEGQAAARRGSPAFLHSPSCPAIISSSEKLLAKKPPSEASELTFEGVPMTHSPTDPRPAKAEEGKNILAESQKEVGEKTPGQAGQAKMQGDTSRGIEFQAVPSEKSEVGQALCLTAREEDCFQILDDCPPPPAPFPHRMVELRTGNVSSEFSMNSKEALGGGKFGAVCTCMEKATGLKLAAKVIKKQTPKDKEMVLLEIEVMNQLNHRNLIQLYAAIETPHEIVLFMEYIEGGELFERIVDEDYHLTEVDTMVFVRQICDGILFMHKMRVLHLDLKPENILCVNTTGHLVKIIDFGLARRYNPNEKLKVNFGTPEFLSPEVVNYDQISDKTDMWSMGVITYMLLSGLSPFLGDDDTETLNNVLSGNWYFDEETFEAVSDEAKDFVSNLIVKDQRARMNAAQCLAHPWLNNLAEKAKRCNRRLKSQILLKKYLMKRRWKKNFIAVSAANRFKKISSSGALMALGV

NLK (human) = NLK (human) (UniProt Q9UBE8)
PRKAA1 (human) = PRKAA1 (human) (UniProt Q13131)
PTK2B (human) = PTK2B (human) (UniProt Q14289)
Sequence of PTK2B (human) (Q14289 whole entry, looked up): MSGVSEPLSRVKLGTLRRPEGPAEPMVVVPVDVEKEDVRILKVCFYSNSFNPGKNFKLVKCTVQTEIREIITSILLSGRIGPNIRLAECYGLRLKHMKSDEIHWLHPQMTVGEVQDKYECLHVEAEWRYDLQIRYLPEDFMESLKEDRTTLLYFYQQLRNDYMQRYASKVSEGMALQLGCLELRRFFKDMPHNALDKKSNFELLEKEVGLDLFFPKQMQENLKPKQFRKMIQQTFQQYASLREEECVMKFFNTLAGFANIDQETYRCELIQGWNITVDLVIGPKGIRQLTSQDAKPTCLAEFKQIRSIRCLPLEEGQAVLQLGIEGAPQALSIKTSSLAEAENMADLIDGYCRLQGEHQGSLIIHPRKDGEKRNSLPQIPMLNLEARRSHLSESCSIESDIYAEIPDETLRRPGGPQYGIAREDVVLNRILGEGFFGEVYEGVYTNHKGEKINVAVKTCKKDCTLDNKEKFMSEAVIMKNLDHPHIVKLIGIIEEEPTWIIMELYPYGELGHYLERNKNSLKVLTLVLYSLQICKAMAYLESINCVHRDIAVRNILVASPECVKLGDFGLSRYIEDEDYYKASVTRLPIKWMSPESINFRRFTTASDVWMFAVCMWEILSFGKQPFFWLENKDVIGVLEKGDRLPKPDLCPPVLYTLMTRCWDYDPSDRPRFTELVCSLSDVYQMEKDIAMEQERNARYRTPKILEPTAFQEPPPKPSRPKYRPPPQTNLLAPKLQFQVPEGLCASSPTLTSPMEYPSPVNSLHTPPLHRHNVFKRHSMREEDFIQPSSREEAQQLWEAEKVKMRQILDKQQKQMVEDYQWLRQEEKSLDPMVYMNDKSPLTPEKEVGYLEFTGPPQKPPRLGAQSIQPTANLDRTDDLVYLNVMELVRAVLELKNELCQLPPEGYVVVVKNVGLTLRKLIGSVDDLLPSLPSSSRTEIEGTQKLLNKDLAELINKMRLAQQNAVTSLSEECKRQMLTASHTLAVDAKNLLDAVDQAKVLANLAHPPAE

RET (human) = RET (human) (UniProt P07949)
Sequence of RET (human) (P07949 whole entry, looked up): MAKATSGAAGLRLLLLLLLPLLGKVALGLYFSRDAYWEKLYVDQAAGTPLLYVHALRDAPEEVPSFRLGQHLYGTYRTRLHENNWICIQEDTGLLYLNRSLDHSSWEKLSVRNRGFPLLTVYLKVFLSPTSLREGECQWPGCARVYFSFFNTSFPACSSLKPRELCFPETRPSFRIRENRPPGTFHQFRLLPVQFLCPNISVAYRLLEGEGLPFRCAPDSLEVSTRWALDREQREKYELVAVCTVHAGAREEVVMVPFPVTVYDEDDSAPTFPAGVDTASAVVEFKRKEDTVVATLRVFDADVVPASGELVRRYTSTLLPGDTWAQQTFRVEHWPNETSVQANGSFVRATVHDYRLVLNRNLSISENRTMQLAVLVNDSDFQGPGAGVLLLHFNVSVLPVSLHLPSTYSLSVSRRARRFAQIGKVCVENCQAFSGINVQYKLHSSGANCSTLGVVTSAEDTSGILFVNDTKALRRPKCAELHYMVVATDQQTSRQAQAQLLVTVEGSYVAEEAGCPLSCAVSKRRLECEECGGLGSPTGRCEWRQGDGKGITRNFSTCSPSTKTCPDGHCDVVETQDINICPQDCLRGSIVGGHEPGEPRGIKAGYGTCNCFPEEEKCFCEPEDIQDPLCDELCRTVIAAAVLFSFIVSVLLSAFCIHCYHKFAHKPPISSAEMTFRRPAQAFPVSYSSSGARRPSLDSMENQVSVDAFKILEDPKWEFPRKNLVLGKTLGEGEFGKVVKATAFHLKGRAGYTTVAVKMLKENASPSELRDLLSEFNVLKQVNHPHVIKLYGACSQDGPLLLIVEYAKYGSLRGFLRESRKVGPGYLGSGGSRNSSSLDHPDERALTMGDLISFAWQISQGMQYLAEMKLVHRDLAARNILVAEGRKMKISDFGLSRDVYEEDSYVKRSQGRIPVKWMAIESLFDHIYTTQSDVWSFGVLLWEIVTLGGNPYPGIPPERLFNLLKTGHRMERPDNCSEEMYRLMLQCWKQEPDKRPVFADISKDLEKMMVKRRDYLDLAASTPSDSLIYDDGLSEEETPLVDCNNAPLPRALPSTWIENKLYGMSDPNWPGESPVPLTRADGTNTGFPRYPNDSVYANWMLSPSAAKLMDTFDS

[10] = tested on: RET (human), P07949 [V804L]
Sequence of RET (human), P07949 [V804L] (P07949 whole entry V804L, looked up): as the sequence (P07949 whole entry, looked up) above, with V804L counted along it

RIPK1 (human) = RIPK1 (human) (UniProt Q13546)
TNK1 (human) = TNK1 (human) (UniProt Q13470)
[11] = target: TYK2 JH1 catalytic (human) (UniProt P29597)

CCN1CCN(Cc2ccc(NC(=O)c3ccc(C)c(Oc4ccnc5[nH]ccc45)c3)cc2C(F)(F)F)CC1
kinase still bound, per cent of control [1]: 1.2% | kinase still bound, per cent of control [2]: 0.35% | kinase still bound, per cent of control [3]: 1.1% | residual activity (CDK15 (human)): 6% | kinase still bound, per cent of control (CSK (human)): 0.45% | kinase still bound, per cent of control (CaMK1 (human)): 0% | kinase still bound, per cent of control [4]: 8.4% | kinase still bound, per cent of control [5]: 14% | kinase still bound, per cent of control (EPHB2 (human)): 11% | kinase still bound, per cent of control (FES (human)): 2.2% | kinase still bound, per cent of control (FGFR4 (human)): 0.45% | kinase still bound, per cent of control (FLT3 (human)): 0.15% | kinase still bound, per cent of control [6]: 1.2% | kinase still bound, per cent of control [7]: 14% | kinase still bound, per cent of control [8]: 0% | kinase still bound, per cent of control (HIPK1 (human)): 6.2% | kinase still bound, per cent of control [9]: 0% | kinase still bound, per cent of control (LATS2 (human)): 13% | kinase still bound, per cent of control (MAP4K3 (human)): 18% | kinase still bound, per cent of control (MAPK14 (human)): 0% | kinase still bound, per cent of control (MKNK2 (human)): 4.2% | kinase still bound, per cent of control (MYLK2 (human)): 8.4% | kinase still bound, per cent of control (NLK (human)): 14% | kinase still bound, per cent of control (PRKAA1 (human)): 33% | kinase still bound, per cent of control (PTK2B (human)): 2.1% | kinase still bound, per cent of control (RET (human)): 0% | kinase still bound, per cent of control [10]: 0.8% | kinase still bound, per cent of control (RIPK1 (human)): 0% | kinase still bound, per cent of control (TNK1 (human)): 0.35% | kinase still bound, per cent of control [11]: 0%
